Structures can show the parent of a compound that is named as a salt.
How the values were obtained:
[1] = molecular target: T1, human neutrophil elastase (Homo sapiens, UniProt P08246); experiment: Neutrophil Elastase activity assay (fluorogenic AMC substrate); assay type: biochemical; set-up: key to Neutrophil Elastase IC50 / Neutrophil Elastase IC90: - = inactive
T1 construct: purchased Merck Millipore 324681
T1 sequence (P08246 30-247 limits assumed): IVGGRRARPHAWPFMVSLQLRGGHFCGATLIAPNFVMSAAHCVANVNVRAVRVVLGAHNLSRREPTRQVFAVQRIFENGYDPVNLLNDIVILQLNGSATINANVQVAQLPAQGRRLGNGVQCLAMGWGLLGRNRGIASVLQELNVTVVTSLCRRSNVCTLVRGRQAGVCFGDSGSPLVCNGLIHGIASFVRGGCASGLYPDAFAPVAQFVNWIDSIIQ

[2] = molecular target: recombinant human TMPRSS2 (Homo sapiens, UniProt O15393); experiment: TMPRSS2 activity assay (fluorogenic AMC substrate); details: read-out: TMPRSS2 IC90
Sequence of recombinant human TMPRSS2 (O15393 106-492 limits assumed): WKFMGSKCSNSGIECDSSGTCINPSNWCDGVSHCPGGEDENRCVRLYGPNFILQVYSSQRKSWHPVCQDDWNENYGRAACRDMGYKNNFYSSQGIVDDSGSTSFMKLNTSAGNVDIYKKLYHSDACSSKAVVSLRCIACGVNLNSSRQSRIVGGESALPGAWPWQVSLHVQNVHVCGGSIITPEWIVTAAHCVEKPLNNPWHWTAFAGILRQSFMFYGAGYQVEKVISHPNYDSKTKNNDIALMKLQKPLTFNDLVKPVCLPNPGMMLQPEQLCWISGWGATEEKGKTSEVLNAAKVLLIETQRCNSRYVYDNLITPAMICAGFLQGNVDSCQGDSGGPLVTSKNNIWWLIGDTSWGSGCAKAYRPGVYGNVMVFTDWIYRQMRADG

[3] = molecular target: recombinant human TMPRSS2 enzyme (CusaBio #YP023924HU) (human) (UniProt O15393); experiment: cell-based or functional assay
Sequence of recombinant human TMPRSS2 enzyme (CusaBio #YP023924HU) (human) (O15393 106-492 limits assumed): as above

| TMPRSS2 IC50 (TMPRSS2 activity assay, fluorogenic BOC-Gln-Ala-Arg-AMC substrate) [3] | Compound | Neutrophil Elastase IC90 ([1]; non-linear regression) | Neutrophil Elastase IC50 ([1]; non-linear regression, three independent experiments) | inhibition of neutrophil elastase activity ([1]; result in words, Figure 27) | IC90 [2] |
| --- | --- | --- | --- | --- | --- |
|  | CN(C)C(=O)COC(=O)Cc1ccc(OC(=O)c2ccc(NC(=N)N)cc2)cc1 [Camostat mesylate] | - | - | did not inhibit | 9.2 nM |
| 79 nM | Prolastin (Grifols), human plasma-derived A1AT formulation (from UniProt P01009 25-418) |  |  |  |  |
| 74.1 nM | recombinant human alpha-1-antitrypsin (rhAAT) glycoprotein secreted from Pichia pastoris mutS strain 1B6 (from UniProt P01009 25-418) |  |  |  |  |

Source: EP4480493A1, “A RECOMBINANT HUMAN ALPHA-1 ANTITRYPSIN GLYCOPROTEIN FOR TREATING NON-VIRAL INFLAMMATORY DISEASES OF THE LUNG” (AATEC Medical GmbH, priority 2023, dated 2024)
